Patent US5633230A, “Treatment of cytomegalovirus infection” (priority 1994, dated 1997)

What was measured:
[1] = blood levels after single subcutaneous injection of labelled compound; type: in vivo; conditions: mice
Procedure: Blood levels in mice resulting from single subcutaneous injection of a 53 μg dose of the labelled compound were also evaluated. […] Peak levels were maintained for about 20 minutes. At 40 minutes and 2 hours, blood levels had declined to about 80% of peak values. […] Evidently, the compound AV-9 reaches the bloodstream rapidly.

HCMV strain AD-169 = assay: drug combination plaque reduction study (MacSynergy); type: cell-based; conditions: human CMV-infected MRC-5 cells, plaque counts
Procedure: For use in this study, HCMV strain AD-169 was obtained from the American Type Culture Collection, Rockville, Md. and ganciclovirresistant clinical isolate of HCMV, strain D16, was obtained from Kenneth D. Thompson, Loyola University Medical Center, Maywood, Ill. Host MRC-5 cells were cultured in a medium of Basal Medium Eagle (BME) (GIBCO), fetal bovine serum (FBS) (Hyclone Laboratories), 0.035% NaHCO3 and without antibiotics.
Test medium for dilution of virus and for preparation and dilution of compounds was Dulbecco's modified Eagle medium (DMEM), 2% FBS, 0.1% NaHCO3, 50 μg gentamicin/ml.
For drug combination experiments, each of AV-9, DHPG, foscarnet, and […] was prepared in test medium at double the highest concentration used. Each of these compound preparations was then diluted by serial 2-fold dilutions in test medium (except for AZT, which was diluted by serial half-log dilutions).
Growth medium was decanted from established monolayers of MRC-5 cells in 24-well tissue culture plates. Compound dilutions were placed in designated wells of the plates at 0.8 ml/well, with test medium only placed in virus control or cell control wells, and the plates were placed at 37° C. Four wells were used for each different compound dilution. After 24 hr of pre-treatment incubation, the medium was aspirated from each well of the plates. One ml of virus, diluted in test medium was placed in each well except those to be used for cell controls or those to be used for toxicity controls. One ml of sterile test medium was placed in each of these cell or toxicity control wells. The plates were centrifuged at 2200 rpm for 30 minutes at room temperature to allow the virus to adsorb. Medium was aspirated from each well of the plates. The proper individual compound concentrations or combinations were placed in test wells (0.8 ml/well, 4 wells/dilution) or in toxicity control wells. Test medium without compound was added (0.8 ml/well) to each cell control and virus control well. All plates were incubated at 37° C. in a moist atmosphere of 5% CO2, 95% air. […] After 15 minutes, the stain was removed, cells were rinsed in tap water until the water was clear, and the plates were inverted and dried at room temperature. Plaques were counted by use of a dissecting microscope. The plaque counts were entered in the MacSynergy™ program of Prichard and Shipman and 3-D plots were made.

[2] = single s.c. injection, 53 μg labelled compound

In the case of CC(=O)N[C@H](CCCNC(=N)N)C(=O)N[C@H](CCCNC(=N)N)C(=O)N[C@H](CCCNC(=N)N)C(=O)N[C@H](CCCNC(=N)N)C(=O)N[C@H](CCCNC(=N)N)C(=O)N[C@H](CCCNC(=N)N)C(=O)N[C@H](CCCNC(=N)N)C(=O)N[C@H](CCCNC(=N)N)C(=O)N[C@H](CCCNC(=N)N)C(N)=O [AV-9, acetyl-[D-Arg]9 -NH2], the “blood level relative to peak values” ([1]; at 40 minutes and 2 hours, single s.c. 53 μg) is reported as “about 80%”, the “blood level relative to peak” value ([1]; at 4 hour, single s.c. 53 μg) is reported as “about 10%” and the blood level ([1]; at 8 hours and 24 hours, single s.c. 53 μg) is reported as “threshold of detection”. The “time near peak blood levels are maintained” value ([1]; single s.c. 53 μg, summary statement) was 20 to 120 min, the near-peak blood level [1, 2] was “around 1 μg/ml” and the “time peak blood levels were maintained” value [1, 2] was “about 20 minutes”. The “time to near-peak blood levels following injection” value [1, 2] was 5 min, the “antagonism in combination with phosphonoformic acid (foscarnet)” value (HCMV strain AD-169) was “insignificant amount of antagonism” and the “synergy in combination with AZT” value (HCMV strain AD-169) was “No synergy”. For the same compound, the “synergy in combination with DHPG” value (HCMV strain AD-169) was “intense synergy” and the “synergy in combination with phosphonoformic acid (foscarnet)” value (HCMV strain AD-169) was “moderate amount of synergy”.
